Experimental findings from ChEMBL document CHEMBL4483862, “Open-source discovery of chemical leads for next-generation chemoprotective antimalarials” (2018) are described below.

This test has as its system Plasmodium berghei. The test is described as follows: Luciferase/luciferin-expressing antifolate-resistant parasites were used to infect a culture of HepG2 cells that were pre-incubated with compounds. Infected hepatocytes emit light due to the luciferase reaction. Assay results are presented as the percent inhibition of light emission compared to control. […]. Particulars: sporozoite; for IC90: read-out: LUCIFERASE INFECTION ASSAY - IC90. In kind it is functional.

For `CN1N=C2c3ccccc3CCC2C1c1ccc(C(F)(F)F)cc1` (configuration not stated), the IC90 came out at 1.66 µM. Besides, the IC50 (PBLUC_HILL_SLOPE 1.95, PBLUC_R_SQUARED 0.843, read-out: LUCIFERASE INFECTION ASSAY - IC50) is 0.537 µM.
Turning to `CN(c1ccccc1)S(=O)(=O)c1ccc(NC(=O)c2cccs2)cc1`, the IC90 turned out to be 8.27 µM. In addition, the IC50 (PBLUC_HILL_SLOPE 1.98, PBLUC_R_SQUARED 0.132, read-out: LUCIFERASE INFECTION ASSAY - IC50) amounted to 2.73 µM.
Turning to `COc1cc(NC(=O)N2CCc3nc(Nc4cc(Cl)cc(Cl)c4)ncc3C2)cc(OC)c1OC`, the IC90 was greater than 6.54 µM. Under “PBLUC_HILL_SLOPE 1.96, PBLUC_R_SQUARED 0.41, read-out: LUCIFERASE INFECTION ASSAY - IC50”, the IC50 was 3.52 µM.
For the compound `CC(C)(C)c1cc(C(=O)N/N=C/c2ccc([N+](=O)[O-])s2)[nH]n1`, the 90% effect concentration (IC90) is greater than 10.3 µM. Besides, the IC50 (PBLUC_HILL_SLOPE 1.97, PBLUC_R_SQUARED 0.294, read-out: LUCIFERASE INFECTION ASSAY - IC50) is 3.6 µM.
For `O=C1NC(=O)/C(=C/c2cccc(C#Cc3ccccc3)c2)S1`, the IC90 is greater than 10.8 µM. Besides, the 50% inhibitory concentration (IC50) (PBLUC_HILL_SLOPE 1.96, PBLUC_R_SQUARED 0.068, read-out: LUCIFERASE INFECTION ASSAY - IC50) was determined as 6.6 µM.
Consider `Fc1ccc(/C=N/n2c(-c3ccc(Cl)cc3)cs/c2=N\CC2CCCO2)cc1` (configuration not stated), for which the IC90 was greater than 10 µM. In addition, the IC50 (PBLUC_HILL_SLOPE 2, PBLUC_R_SQUARED 0.363, read-out: LUCIFERASE INFECTION ASSAY - IC50) worked out at 5.58 µM.
For `Cc1ccc(-c2cnn3c(NCCN(C)C)cc(C)nc23)cc1`, the concentration for an effect of 90% (IC90) stood at 10.6 µM. Also, the IC50 (PBLUC_HILL_SLOPE 1.98, PBLUC_R_SQUARED 0.569, read-out: LUCIFERASE INFECTION ASSAY - IC50) worked out at 3.5 µM.
With `CN(C)Cc1ccc(-c2ccccc2CNC(=O)CC2CC3CCC2C3)cc1` (configuration not stated), the IC90 was greater than 10 µM. Besides, the IC50 (PBLUC_HILL_SLOPE 2, PBLUC_R_SQUARED 0.172, read-out: LUCIFERASE INFECTION ASSAY - IC50) is greater than 10 µM.
Regarding `Cc1cc(NC(=O)N2CCN(Cc3cccc4ccccc34)CC2)no1`, the IC90 is greater than 10 µM. Moreover, the IC50 (PBLUC_HILL_SLOPE 2.02, PBLUC_R_SQUARED 0.015, read-out: LUCIFERASE INFECTION ASSAY - IC50) was greater than 10 µM.
In the case of `Cc1ccc(NC2c3ccccc3-c3ccccc32)cc1`, the IC90 is greater than 10 µM. The IC50 (PBLUC_HILL_SLOPE 2, PBLUC_R_SQUARED 0.71, read-out: LUCIFERASE INFECTION ASSAY - IC50) stood at 6.95 µM.
For the compound `Cc1ccc(-c2cnn3c(N4CCCC4)cc(C)nc23)cc1`, the IC90 came out at 9.26 µM. For the same compound, the IC50 (PBLUC_HILL_SLOPE 2.02, PBLUC_R_SQUARED 0.442, read-out: LUCIFERASE INFECTION ASSAY - IC50) was 3.13 µM.
Take `CN1/C(=C\C(=O)CSc2nc(N)c3ccsc3n2)C(C)(C)c2ccccc21`: the IC90 was greater than 10 µM. In addition, the IC50 (PBLUC_HILL_SLOPE 1.96, PBLUC_R_SQUARED 0.352, read-out: LUCIFERASE INFECTION ASSAY - IC50) turned out to be 8.34 µM.
For the compound `Cc1ccc(C)c(Sc2ccc(NC(=O)CN3C(=O)NC(Cc4ccccc4)C3=O)cc2)c1` (configuration not stated), the IC90 is greater than 10 µM. Also, the 50% inhibitory concentration (IC50) (PBLUC_HILL_SLOPE 1.97, PBLUC_R_SQUARED 0.872, read-out: LUCIFERASE INFECTION ASSAY - IC50) was 5.94 µM.
`CC(C)c1ccc(/C=C2\CCn3c2nc(=O)c2ccccc23)cc1`: the IC90 was greater than 10.4 µM. The IC50 (PBLUC_HILL_SLOPE 2.01, PBLUC_R_SQUARED 0.333, read-out: LUCIFERASE INFECTION ASSAY - IC50) stood at 4.19 µM.
`Clc1sc2ccccc2c1-c1nnc(SCc2nc3ccccn3c2Br)n1-c1ccccc1`: the IC90 was greater than 10 µM. In addition, for the setting “PBLUC_HILL_SLOPE 2.01, PBLUC_R_SQUARED 0.722, read-out: LUCIFERASE INFECTION ASSAY - IC50”, the IC50 is 6.1 µM.
In the case of `O=C(CN1CCN(S(=O)(=O)c2cccs2)CC1)Nc1ccccc1C(=O)c1ccccc1`, the IC90 was greater than 10 µM. For the same compound, the IC50 (PBLUC_HILL_SLOPE 1.98, PBLUC_R_SQUARED 0.361, read-out: LUCIFERASE INFECTION ASSAY - IC50) is 5.33 µM.
Take `CCC(=O)Nc1c(-c2nc3ccccc3[nH]2)c(C)c(C)n1C1CCCC1`: the IC90 was greater than 9.42 µM. Besides, the IC50 (PBLUC_HILL_SLOPE 2, PBLUC_R_SQUARED 0.418, read-out: LUCIFERASE INFECTION ASSAY - IC50) amounted to 6.01 µM.
Take `c1cc2[nH]c(-c3ccsc3)cc2c(Nc2ccc(N3CCOCC3)cc2)n1`: the IC90 is greater than 10 µM. Moreover, the IC50 (PBLUC_HILL_SLOPE 2.04, PBLUC_R_SQUARED 0.351, read-out: LUCIFERASE INFECTION ASSAY - IC50) is 6.37 µM.
For the compound `Cc1ccc2[nH]c(=S)n(-c3cc(Cl)ccc3C)c(=O)c2c1`, the IC90 was greater than 10.4 µM. Moreover, the IC50 (PBLUC_HILL_SLOPE 1.97, PBLUC_R_SQUARED 0.142, read-out: LUCIFERASE INFECTION ASSAY - IC50) is 9.2 µM.
Regarding `Cc1ccc(NC(=O)Cn2ccccc2=O)cc1S(=O)(=O)N1CCCCC1`, the IC90 is greater than 10 µM. Also, the IC50 (PBLUC_HILL_SLOPE 1.99, PBLUC_R_SQUARED 0.304, read-out: LUCIFERASE INFECTION ASSAY - IC50) amounted to 5.37 µM.
Regarding `Fc1cccc(-n2ccnc2SCc2nc3ccccc3s2)c1`, the IC90 was greater than 10 µM. For the same compound, for the setting “PBLUC_HILL_SLOPE 1.97, PBLUC_R_SQUARED 0.394, read-out: LUCIFERASE INFECTION ASSAY - IC50”, the half-maximal inhibitory concentration (IC50) was 6.86 µM.
As to `CN(C)c1cccc(-c2cnc3cnc(-c4cccc(C(=O)NCCO)c4)cn23)c1`, the 90% effect concentration (IC90) was greater than 8.22 µM. Also, the IC50 (PBLUC_HILL_SLOPE 1.98, PBLUC_R_SQUARED 0.622, read-out: LUCIFERASE INFECTION ASSAY - IC50) is 5.11 µM.
As for `CC1CCCCN1CCCNC(=S)Nc1cc(C(F)(F)F)cc(C(F)(F)F)c1` (configuration not stated), the IC90 was greater than 7.72 µM. The IC50 (PBLUC_HILL_SLOPE 2.02, PBLUC_R_SQUARED 0.36, read-out: LUCIFERASE INFECTION ASSAY - IC50) came to 3.73 µM.
As for `O=C(Nc1ncccc1O)c1ccc(-n2ccnc2)cc1`, the IC90 amounted to 8.71 µM. Further, the half-maximal inhibitory concentration (IC50) (PBLUC_HILL_SLOPE 2.04, 2.50, 2.35, PBLUC_R_SQUARED 0.554, 0.491, 0.399, read-out: LUCIFERASE INFECTION ASSAY - IC50) was 3.31 µM.
In the case of `Cc1cccc(NC(=O)c2ccc(Cl)c(S(=O)(=O)Nc3c(C)n(C)n(-c4ccccc4)c3=O)c2)n1`, the IC90 is greater than 10 µM. In addition, the 50% inhibitory concentration (IC50) (PBLUC_HILL_SLOPE 1.97, PBLUC_R_SQUARED 0.221, read-out: LUCIFERASE INFECTION ASSAY - IC50) is 9.2 µM.
On to `CC(C)N1CCN(c2ccc(-c3cn4c(-c5ccccc5)cnc4cn3)cc2)CC1`, for which the IC90 is greater than 8.3 µM. Further, the IC50 (PBLUC_HILL_SLOPE 2.04, PBLUC_R_SQUARED 0.328, read-out: LUCIFERASE INFECTION ASSAY - IC50) was determined as 5.96 µM.
With `O=S(=O)(CCN1CCC(C(c2ccccc2)c2ccccc2)CC1)c1ccc(F)cc1`, the IC90 was 5.93 µM. In addition, under “PBLUC_HILL_SLOPE 2.04, PBLUC_R_SQUARED 0.498, read-out: LUCIFERASE INFECTION ASSAY - IC50”, the IC50 was determined as 2.02 µM.
Turning to `Cc1cc(C)c(C(=O)C2CCN(C(=O)c3cccs3)CC2)c(C)c1`, the IC90 is greater than 9.66 µM. Further, the IC50 (PBLUC_HILL_SLOPE 1.97, PBLUC_R_SQUARED 0.657, read-out: LUCIFERASE INFECTION ASSAY - IC50) turned out to be 3.99 µM.
For the compound `CCOC(=O)c1sc(N)c(C#N)c1CSc1ncc(C(F)(F)F)cc1Cl`, the concentration for an effect of 90% (IC90) is greater than 10 µM. Besides, the half-maximal inhibitory concentration (IC50) (PBLUC_HILL_SLOPE 1.96, PBLUC_R_SQUARED 0.0831, read-out: LUCIFERASE INFECTION ASSAY - IC50) was greater than 10 µM.
With `CN1CCN(c2ccc(-c3cn4c(-c5cccc(Cl)c5)cnc4cn3)cn2)CC1`, the IC90 is greater than 8.15 µM. Besides, the IC50 (PBLUC_HILL_SLOPE 1.98, PBLUC_R_SQUARED 0.725, read-out: LUCIFERASE INFECTION ASSAY - IC50) was found to be 5.39 µM.
On to `CC(C)(C)c1cc(C(=O)Nc2cc(-c3cccs3)nn2-c2ccc(I)cc2)n(Cc2ccccc2)n1`, for which the concentration for an effect of 90% (IC90) is greater than 5.43 µM. Moreover, the IC50 (PBLUC_HILL_SLOPE 1.99, PBLUC_R_SQUARED 0.0392, read-out: LUCIFERASE INFECTION ASSAY - IC50) was 4.11 µM.
In the case of `CN(Cc1nc(N)c2c3c(sc2n1)CCCC3)Cc1cccs1`, the IC90 is greater than 10 µM. Also, the IC50 (PBLUC_HILL_SLOPE 2.01, PBLUC_R_SQUARED 0.418, read-out: LUCIFERASE INFECTION ASSAY - IC50) was determined as 4.1 µM.
Take `O=C(NCCSCc1c(F)cccc1Cl)c1cccs1`: the IC90 is greater than 10 µM. The IC50 (PBLUC_HILL_SLOPE 2.01, PBLUC_R_SQUARED 0.48, read-out: LUCIFERASE INFECTION ASSAY - IC50) worked out at 3.94 µM.
As to `COc1cccc(C2CNC(c3ccc(Cl)cc3)c3[nH]c4ccccc4c32)c1OC` (configuration not stated), the IC90 stood at 5.44 µM. Also, the IC50 (PBLUC_HILL_SLOPE 2.02, PBLUC_R_SQUARED 0.709, read-out: LUCIFERASE INFECTION ASSAY - IC50) was determined as 1.84 µM.
Turning to `O=C(Nc1ccc(F)cc1F)Nc1cc(Cl)sc1Cl`, the IC90 is greater than 10.2 µM. For the same compound, the IC50 (PBLUC_HILL_SLOPE 1.97, PBLUC_R_SQUARED 0.405, read-out: LUCIFERASE INFECTION ASSAY - IC50) was found to be 6.86 µM.
Turning to `COc1ccc2nc(-c3ccccc3)cc(NCCN(C)C)c2c1`, the IC90 is greater than 10.3 µM. For the same compound, the IC50 (PBLUC_HILL_SLOPE 1.97, PBLUC_R_SQUARED 0.162, read-out: LUCIFERASE INFECTION ASSAY - IC50) was determined as 4.55 µM.
